BindingDB's records for patent US20240189287 (Bionanosim (Bns, 2024)

Target: Cannabinoid receptor 1 (Mus musculus, UniProt P47746)
Experiment: CB1 receptor binding assay
Excerpt: Mouse brain membranes were used as the source material for CB1 receptors. […] Briefly.

Chain of Cannabinoid receptor 1 (P47746 whole entry): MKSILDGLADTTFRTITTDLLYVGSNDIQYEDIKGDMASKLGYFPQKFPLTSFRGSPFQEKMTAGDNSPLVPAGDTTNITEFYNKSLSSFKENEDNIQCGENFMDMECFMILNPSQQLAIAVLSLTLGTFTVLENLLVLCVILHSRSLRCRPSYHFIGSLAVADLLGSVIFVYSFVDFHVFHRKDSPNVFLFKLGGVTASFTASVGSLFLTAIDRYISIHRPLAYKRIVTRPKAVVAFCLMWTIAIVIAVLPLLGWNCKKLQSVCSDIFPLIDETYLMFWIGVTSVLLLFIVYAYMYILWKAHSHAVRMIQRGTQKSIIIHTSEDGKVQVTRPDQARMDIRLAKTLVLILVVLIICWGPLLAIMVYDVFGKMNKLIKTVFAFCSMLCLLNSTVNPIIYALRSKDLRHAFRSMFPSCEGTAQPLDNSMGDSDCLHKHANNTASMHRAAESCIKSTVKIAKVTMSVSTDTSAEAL

`O=S(=O)(NC1CCCOc2c1nn(-c1ccccc1Cl)c2-c1ccc(Cl)cc1)c1ccc(Cl)cc1` (stereo unspecified) [US20240189287, Compound BNS808] gave a Ki of 0.6 nM.
